By mortality is commonly meant the percentage killed.

Where “and” joins values, the source holds several entries; their conditions need not be identical. Equal entries are not always repeated. Where two headings read alike, the source gives them in different places.

For one series, the system named is Heliothis virescens. Kind of series: Sprayed cotton leaf test, mortality of 1st instar larvae after 3 days. How it is done: (§1) For Heliothis and Spodoptera testing cotton leaves were sprayed in a Berkhard Potter Tower, left to dry for 1 hour and then placed on the top of pots containing twenty 1st instar Heliothis virescens/Spodoptera littoralis larvae. These were stored in a test holding room at 25° C. for 3 days and the test species assessed for mortality. For aphid testing Leaf discs were cut from excised Chinese cabbage leaves and placed on agar in test pots. R2 Myzus persicae were transferred from the culture on radish cotyledons and left overnight. The dried cotyledons were removed, leaving approximately 20-25 aphids on each leaf disc. The pots were sprayed in a Berkhard Potter Tower. Once dry, ventilated lids were placed on the top. These were stored in a Weiss Room at 20° C. for 3 days and the test species assessed for mortality. All tests included a Synperonic NP8 control. […] Any increase in the expected amount of mortality may be attributed to synergism. This is calculated in the following way: Expected mortality from mixture=% mortality of mixture partner A+(100%−% mortality of A)*(% mortality of mixture partner B). The results are set out in Tables I-III.

Another series deals with Spodoptera littoralis. Described as above. The conditions noted are these: for Observed % mortality Other ai: 3 days. The method, then:
as §1

A further series concerns Myzus persicae. Kind of series: Sprayed Chinese cabbage leaf disc aphid test, mortality after 3 days. To be noted: in Brassica rapa, foliar, 72 h. How it is done: as §1
[1] abbreviates: read-out: Observed % mortality Other.
[2] abbreviates: read-out: Observed % mortality Gamma.
[3] abbreviates: Spodoptera littoralis, in Gossypium hirsutum, 72 h, read-out: Observed % mortality Gamma.

For `CCOP(=S)(OCC)Oc1nc(Cl)c(Cl)cc1Cl` [Chlorpyrifos, chlorpyrifos], in the series with Heliothis virescens (Heliothis virescens, in Gossypium hirsutum, 72 h, read-out: Observed % mortality Other ai, other ai alone 2.50 ppm), the mortality at 2.5 ppm was found to be 36%. In the series with Heliothis virescens (Heliothis virescens, in Gossypium hirsutum, 72 h, read-out: Observed % mortality Other ai, other ai alone 5.00 ppm), the mortality at 5 ppm worked out at 29%. Also, the mortality at 10 ppm with Heliothis virescens (Heliothis virescens, in Gossypium hirsutum, 72 h, read-out: Observed % mortality Other ai, other ai alone 10.00 ppm) amounted to 44%.

As for emamectin benzoate, the “Observed % mortality Other ai” value with Heliothis virescens (other ai alone 0.13 ppm) is 97% and 96%; in the series on Heliothis virescens (other ai alone 0.25 ppm) it was 97% and 96% and 99%; in the series with Heliothis virescens (other ai alone 0.50 ppm), 96% and 99%; in the series on Spodoptera littoralis (other ai alone 0.0025 ppm), 0%; in the series with Spodoptera littoralis (other ai alone 0.005 ppm), 6%; in the series with Spodoptera littoralis (other ai alone 0.01 ppm), 0%.

For `CN1COCN(Cc2cnc(Cl)s2)/C1=N\[N+](=O)[O-]` [Thiamethoxam, thiamethoxam], in the series with Myzus persicae (setting [1]), the mortality at 1.25 ppm was determined as 70%, the mortality at 2.5 ppm stood at 92% and the mortality at 5 ppm came out at 94%.

Take `COC(=O)N(C(=O)N1CO[C@@]2(C(=O)OC)Cc3cc(Cl)ccc3C2=N1)c1ccc(OC(F)(F)F)cc1` [Indoxacarb]: the “Observed % mortality Other ai” value is 26% and 22% in the series on Heliothis virescens (other ai alone 0.20 ppm); 26% and 46% in the series on Heliothis virescens (other ai alone 0.80 ppm).

With `CC1(C)[C@H](C(=O)O[C@H](C#N)c2cccc(Oc3ccccc3)c2)[C@@H]1/C=C(\Cl)C(F)(F)F` (racemic) [Lambda-cyhalothrin, lambda-cyhalothrin], in the series with Myzus persicae (setting [1]), the mortality at 0.125 ppm stood at 10%. Further, the mortality at 0.25 ppm in the series with Myzus persicae (setting [1]) came out at 4%; in the series with Heliothis virescens (Heliothis virescens, in Gossypium hirsutum, 72 h, read-out: Observed % mortality Other ai, other ai alone 0.25 ppm), 46%. For the same compound, the mortality at 0.5 ppm with Myzus persicae (setting [1]) was 14%; in the series with Heliothis virescens (Heliothis virescens, in Gossypium hirsutum, 72 h, read-out: Observed % mortality Other ai, other ai alone 0.50 ppm) it was 50%. In addition, the mortality at 1 ppm with Heliothis virescens (Heliothis virescens, in Gossypium hirsutum, 72 h, read-out: Observed % mortality Other ai, other ai alone 1.00 ppm) came to 46%. Besides, the “Observed % mortality Other ai” value in the series on Heliothis virescens (other ai alone 0.50 ppm) and in the series with Heliothis virescens (other ai alone 1.00 ppm) was 52% in each case.

Turning to abamectin, the “Observed % mortality Other ai” value in the series with Heliothis virescens (other ai alone 0.25 ppm), in the series with Heliothis virescens (other ai alone 0.50 ppm) and in the series on Heliothis virescens (other ai alone 1.00 ppm) was 0% each time.

As to `CC1(C)[C@H](C(=O)O[C@H](C#N)c2cccc(Oc3ccccc3)c2)[C@@H]1/C=C(\Cl)C(F)(F)F` [Gamma, (S)-α-cyano-3-phenoxybenzyl (Z)-(1R,3R)-3-(2-chloro-3,3,3-trifluoro-1-propenyl)-2,2-dimethylcyclopropanecarboxylate], the mortality at 0.25 ppm in the series on Myzus persicae (setting [2]) was 70%; with Heliothis virescens (Heliothis virescens, in Gossypium hirsutum, 72 h, read-out: Observed % mortality Gamma, Gamma alone 0.25 ppm), 32%. The mortality at 0.5 ppm came out at 69% in the series on Myzus persicae (setting [2]) and 32% with Heliothis virescens (Heliothis virescens, in Gossypium hirsutum, 72 h, read-out: Observed % mortality Gamma, Gamma alone 0.50 ppm). In addition, the mortality at 1 ppm is 98% in the series with Myzus persicae (setting [2]) and 46% in the series on Heliothis virescens (Heliothis virescens, in Gossypium hirsutum, 72 h, read-out: Observed % mortality Gamma, Gamma alone 1.00 ppm). The “Observed % mortality Gamma” value in the series with Heliothis virescens (Gamma alone 0.25 ppm), in the series with Heliothis virescens (Gamma alone 0.50 ppm) and in the series with Heliothis virescens (Gamma alone 1.00 ppm) was 28% throughout. In addition, the mortality at 0.025 ppm in the series with Spodoptera littoralis (setting [3]) worked out at 0%. Besides, the mortality at 0.05 ppm in the series on Spodoptera littoralis (setting [3]) is 25%. Besides, the mortality at 0.1 ppm in the series on Spodoptera littoralis (setting [3]) worked out at 90%.

Source of the values: patent US8852618B2, “Insecticidal mixture containing gamma-cyhalothrin” (Syngenta Limited, priority 2001, dated 2014).
